Read-outs that look alike come from different tables or passages of the source.
What was measured:
[1] = tested on: ADP-induced platelet aggregation
[2] = target: platelet P2Y12 receptor (Rattus norvegicus, UniProt Q9EPX4)
[3] = single oral dose 10 mg/kg, 4 h after administration, P < 0.05

Sequence of platelet P2Y12 receptor (Q9EPX4 whole entry): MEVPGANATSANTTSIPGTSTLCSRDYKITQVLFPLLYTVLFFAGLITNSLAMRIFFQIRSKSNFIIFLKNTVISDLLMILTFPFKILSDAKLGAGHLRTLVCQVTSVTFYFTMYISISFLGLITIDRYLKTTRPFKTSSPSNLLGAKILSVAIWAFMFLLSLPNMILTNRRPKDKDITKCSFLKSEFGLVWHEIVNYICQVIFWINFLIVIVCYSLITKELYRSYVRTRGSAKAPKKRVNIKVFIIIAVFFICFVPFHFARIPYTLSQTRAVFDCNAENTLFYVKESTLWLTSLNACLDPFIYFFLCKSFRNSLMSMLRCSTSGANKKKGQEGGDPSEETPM

## COC(=O)[C@H](c1ccccc1Cl)N1CCc2sccc2C1 [Clop, Clopidogrel]
[1]; 3 mg/kg repeated oral dose group, male SD rats, 5 umol/L ADP
  mean IPA: 14.0 ± 12.5%
[1]; 30 mg/kg repeated oral dose group, male SD rats, 5 umol/L ADP
  mean IPA: 59.6 ± 10.1%
[1]; 3, 10 and 30 mg/kg for 7 days, all three dose groups, male SD rats
  time for platelet activity to recover after cessation of administration: five
[1]; co-administration 10 mg/kg Clop + 10 mg/kg omeprazole, after 7 days, P < 0.01
  decrease in IPA vs Clop alone: 57.3%
[1]; co-administration 10 mg/kg Clop + 10 mg/kg omeprazole, after 7 days, P < 0.05
  increase in MPA vs Clop alone: 21.1%
[1]; [3]
  decrease in IPA in T2DM rats vs control rats: 48.3%
  increase in MPA in T2DM rats vs control rats: 33.2%
[1]; single oral dose 10 mg/kg, male SD rats, post-administration, 5 umol/L ADP
  time of peak maximal inhibitory effect on platelet aggregation (MPA, IPA): 4 h
[2]; 3 mg/kg oral for 7 consecutive days, male SD rats, P < 0.01
  change in P2Y12 occupancy between D1H4 and D7H4: gradual and significant increase
[2]; single oral dose 10 mg/kg, 1 h post-administration, P < 0.05
  decrease in P2Y12 occupancy in T2DM rats vs control rats: 50.7%
[2]; single oral dose 10 mg/kg, 4 h post-administration, P < 0.001
  decrease in P2Y12 occupancy in T2DM rats vs control rats: 64.4%
[2]; single oral dose 10 mg/kg, male SD rats, post-administration
  time of maximal P2Y12 occupancy: 4 h
